Measured values: PubChem BioAssay (NCI)
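Step 1: Grow cells in 96-well plates. Step 2: Expose to compound for 48 hours at 5 concentrations. Step 3: Interpolate endpoints linearly; if unreached, use highest concentration. GI50 is the concentration that inhibits growth by half. TGI: total growth inhibition.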

Legend:
Experiment in all cases: growth of human tumour cells (NCI), 48 h
HCC-2998 colon = system: HCC-2998 colon
HOP-92 NSCLC = system: HOP-92 NSCLC
HT29 colon = system: HT29 colon
IGROV1 ovarian = system: IGROV1 ovarian
MALME-3M melanoma = system: MALME-3M melanoma
SK-MEL-5 melanoma = system: SK-MEL-5 melanoma
U251 CNS = system: U251 CNS
UACC-257 melanoma = system: UACC-257 melanoma
UACC-62 melanoma = system: UACC-62 melanoma
HS 578T breast = system: HS 578T breast

Row | Compound | TGI (HCC-2998 colon) | TGI (HOP-92 NSCLC) | TGI (HT29 colon) | TGI (IGROV1 ovarian) | TGI (MALME-3M melanoma) | TGI (SK-MEL-5 melanoma) | TGI (U251 CNS) | TGI (UACC-257 melanoma) | TGI (UACC-62 melanoma) | GI50 (HCC-2998 colon) | GI50 (HS 578T breast) | TGI (HS 578T breast) | GI50 (HT29 colon) | GI50 (IGROV1 ovarian) | GI50 (MALME-3M melanoma) | GI50 (SK-MEL-5 melanoma) | GI50 (U251 CNS) | GI50 (UACC-257 melanoma) | GI50 (UACC-62 melanoma)
1 | c1ccc(COCC2OC3c4ccccc4COC3C2OCc2ccccc2)cc1 (configuration not stated) | > 100 µM | 87.1 µM | > 100 µM | > 100 µM | > 100 µM | > 100 µM | > 100 µM | > 100 µM | > 100 µM | – | – | – | – | – | – | – | – | – | –
2 | N#Cc1ccc(C(c2ccc(C#N)cc2)n2cncn2)cc1 | > 5000 µM | – | > 5000 µM | – | > 5000 µM | > 5000 µM | > 5000 µM | > 5000 µM | – | > 5000 µM | 1540 µM | > 5000 µM | > 5000 µM | 47.5 µM | > 5000 µM | 3.33 µM | 2850 µM | > 5000 µM | 51.5 µM
3 | COc1ccc(-c2ccc(/C=N/n3c(C)nn(CN4CCN(C)CC4)c3=S)o2)c([N+](=O)[O-])c1 | > 100 µM | – | > 100 µM | > 100 µM | > 100 µM | – | – | – | > 100 µM | 34.7 µM | – | – | 28 µM | 63.4 µM | 44.6 µM | – | – | – | 55.4 µM
4 | COC(=O)C(Cc1nc2ccc(Cl)cc2[nH]c1=O)/C(=N/NC(N)=O)C(=O)Nc1ccc(Cl)cc1 (configuration not stated) | > 100 µM | > 100 µM | > 100 µM | > 100 µM | > 100 µM | > 100 µM | > 100 µM | > 100 µM | > 100 µM | – | – | – | – | – | – | – | – | – | –
5 | COc1cc(-c2cc(=O)c3cc(C)c(C)c(C(=O)O)c3o2)cc(OC)c1OC | > 100 µM | > 100 µM | > 100 µM | > 100 µM | > 100 µM | > 100 µM | > 100 µM | > 100 µM | > 100 µM | – | – | – | – | – | – | – | – | – | –
6 | Cn1c2cc(O)cc(O)c2c(=O)c2c([N+](=O)[O-])cccc21 | > 100 µM | > 100 µM | > 100 µM | > 100 µM | > 100 µM | > 100 µM | > 100 µM | > 100 µM | > 100 µM | – | – | – | – | – | – | – | – | – | –
7 | CNC1C(O)C(OC2C(N)CC(N)C(OC3OC(C(C)O)C(O)C(O)C3N)C2O)OCC1(C)O (configuration not stated) | > 100 µM | – | > 100 µM | > 100 µM | – | > 100 µM | > 100 µM | – | > 100 µM | – | – | > 100 µM | – | – | – | – | – | – | –
8 | CC/C(C)=C1\OC(=O)C(C)C(O)C(Cc2cccnc2)NC(=O)C(NC(=O)c2ncccc2O)C(C)OC1=O (configuration not stated) | > 100 µM | – | > 100 µM | > 100 µM | > 100 µM | > 100 µM | > 100 µM | > 100 µM | > 100 µM | – | – | > 100 µM | – | – | – | – | – | – | –
9 | O=C(NO)C(=O)Nc1ccc(Cl)cc1[N+](=O)[O-] | > 100 µM | > 100 µM | > 100 µM | > 100 µM | > 100 µM | > 100 µM | > 100 µM | > 100 µM | > 100 µM | – | – | – | – | – | – | – | – | – | –
10 | COC12CC(=O)C(C(C)=O)=C(O)C1(C)c1c(OC(C)=O)c(C)c(O)c(C(C)=O)c1O2 (configuration not stated) | 84 µM | 52 µM | 78.7 µM | > 100 µM | 60.2 µM | – | > 100 µM | 91.4 µM | 23.4 µM | – | – | – | – | – | – | – | – | – | –
11 | COC(OC)[C@@H](C)[C@H](O)[C@](C)(O)C1OC(C)(C)OC(C(C)C=C(C)C)C1C (some centres not stated) | – | > 100 µM | > 100 µM | > 100 µM | > 100 µM | > 100 µM | > 100 µM | > 100 µM | > 100 µM | – | – | – | – | – | – | – | – | – | –
12 | CC(=O)OC1CC2C(C)(C)C(=O)C=CC2(C)C2CCC3(C)C(c4ccoc4)OC(=O)C4OC43C12C (configuration not stated) | 14.2 µM | > 100 µM | 39 µM | > 100 µM | – | 19.2 µM | 26.1 µM | > 100 µM | 18.4 µM | – | – | > 100 µM | – | – | – | – | – | – | –
